# Experimental data from patent US6166205A, “2-Aryl-4-(1-[4-heteroaryl]piperazin-1-yl)methylimidazoles: dopamine . D.sub4 receptor subtype ligands” (Neurogen Corporation, priority 1999, dated 2000).
# Counter-ions that a name gives are not always drawn.
# What was measured:
# D4 receptor = test: dopamine D4 receptor binding assay (3H-YM 09151-2); set-up: species or system African Green monkey; conditions: 0.5 nM 3H-YM 09151-2; COS cells with recombinantly produced D4 receptors; Table 2: rat striatal homogenates
# Experimental: (§1) Assays For D2 And D4 Receptor Binding Activity
# (§2) Pellets of COS cells containing recombinantly produced D2 or D4 receptors from African Green monkey are used for the assays. A sample is homogenized in 100 volumes (w/vol) of 0.05 M Tris HCl buffer at 4° C. and pH 7.4 and then centrifuged at 30,000×g and resuspended and rehomogenized. The sample is again centrifuged at 30,000×g and the final tissue sample is frozen until use. The tissue is resuspended 1:20 (wt/vol) in 0.05 M Tris HCl buffer containing 100 mM NaCl.
# (§3) Incubations are carried out at […] and contain 0.4 ml of tissue sample, 0.5 nM ^3 H-YM 09151-2(Nemonapride, cis-5-Chloro-2-methoxy-4-(methylamino)-N-(2-methyl-2-(phenylmethyl)-3-pyrrolidinyl)benzamide) and the compound of interest in a total incubation of 1.0 ml. Nonspecific binding is defined as that binding found in the presence of […] spiperone; without further additions, nonspecific binding is less than 20% of total binding. The binding characteristics of representative compounds of this invention for the D2 and D4 receptor subtypes are shown in Table 2 for rat striatal homogenates.
# D2 receptor = D2 receptor (Chlorocebus aethiops, UniProt P52702); test: dopamine D2 receptor binding assay (3H-YM 09151-2); set-up: species or system African Green monkey; conditions: 0.5 nM 3H-YM 09151-2; COS cells with recombinantly produced D2 receptors; Table 2: rat striatal homogenates
# Chain of D2 receptor (P52702 whole entry): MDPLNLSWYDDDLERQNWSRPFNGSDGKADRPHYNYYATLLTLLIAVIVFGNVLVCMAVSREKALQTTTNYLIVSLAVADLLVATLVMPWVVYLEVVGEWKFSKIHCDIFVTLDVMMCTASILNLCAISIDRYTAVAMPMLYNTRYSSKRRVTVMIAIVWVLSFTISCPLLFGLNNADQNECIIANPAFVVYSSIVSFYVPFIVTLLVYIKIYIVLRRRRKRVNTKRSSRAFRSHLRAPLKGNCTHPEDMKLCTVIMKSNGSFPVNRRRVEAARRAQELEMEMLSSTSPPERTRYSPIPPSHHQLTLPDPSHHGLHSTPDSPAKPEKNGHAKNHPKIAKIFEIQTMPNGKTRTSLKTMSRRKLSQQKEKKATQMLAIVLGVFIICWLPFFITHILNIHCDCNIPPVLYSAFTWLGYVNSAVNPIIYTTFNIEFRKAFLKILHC
# Experimental: as §1, §2, §3
Structure (SMILES),Ki (D4 receptor) [nM],Ki (D2 receptor) [nM]
"c1ccc(-c2ncc(CN3CCN(c4ccc5c(n4)CCCC5)CC3)[nH]2)cc1 [Compound 1a, (1-[(2-phenylimidazol-5-yl)methyl]-4-(2-5,6,7,8-tetrahydroquinolyl)piperazine hydrobromide]",14,> 1000
"c1ccc(-c2ncc(CN3CCN(c4ccc5ccccc5n4)CC3)[nH]2)cc1 [Compound 2a, 1-[(2-phenylimidazol-5-yl)methyl]-4-(2-quinolyl)piperazine hydrobromide]",9,784
"Fc1ccccc1-c1ncc(CN2CCN(c3ccc4ccccc4n3)CC2)[nH]1 [Compound 3a, 1-{[2-(2-fluorophenyl)imidazol-5-yl]methyl}-4-(2-quinolyl)piperazine oxalate]",17,978

# More lines, now with the values ahead:
Ki (D4 receptor) [nM],Ki (D2 receptor) [nM],Structure (SMILES)
–,2680,"c1ccc(-c2ncc(CN3CCN(c4ncc5ccccc5n4)CC3)[nH]2)cc1 [Compound 4a, 2-{4-[(2-phenylimidazol-5-yl)methyl]piperazinyl}quinazoline]"
–,2050,"c1ccc(-c2ncc(CN3CCN(c4cnc5ccccc5n4)CC3)[nH]2)cc1 [Compound 5, 2-{4-[(2-phenylimidazol-5-yl)methyl]piperazinyl}quinoxaline]"
